In PubChem BioAssay (NCI) one finds TGI data, which are given here for eight compounds.

Among the test systems are LOX IMVI melanoma; OVCAR-3 ovarian; SN12C renal; COLO 205 colon; SK-MEL-28 melanoma; ACHN renal; SF-268 CNS; T-47D breast; OVCAR-4 ovarian; HT29 colon; HCT-116 colon; NCI-H23 lung; SF-295 CNS; MCF7 breast; RXF 393 renal; NCI-H522 lung; TK-10 renal; SR leukemia.
Common to all, as to assay: NCI-60 cell line screen, 48 h

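Each compound was tested at five concentrations against cells in 96-well plates for 48 hours. The concentration for full growth arrest is given as TGI.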 Where a SMILES comes first, the peptide text is derived from it. Bridges are numbered along the chain shown (N, C = ends). The star is where a group is joined. Cbz = O=C(OCc1ccccc1)* Where only a bound is given, the exact number is not on record here.

As for `N#CC(C#N)=c1c(=O)c2c3ccccc3cc3cccc1c32`, the TGI with LOX IMVI melanoma, with OVCAR-3 ovarian, in the assay on SN12C renal, with COLO 205 colon, with SK-MEL-28 melanoma and in the assay on ACHN renal was > 100 µM throughout. For the same compound, the TGI with SF-268 CNS, in the assay with T-47D breast, in the assay with OVCAR-4 ovarian, with HT29 colon, in the assay on HCT-116 colon and in the assay with NCI-H23 lung was > 100 µM in each case.

On to `COCN1C(=O)[C@@H]2CCCN2C(=O)c2cc(OC)c(Cc3ccccc3)cc21`, for which the TGI in the assay on LOX IMVI melanoma, with SF-295 CNS, in the assay on SN12C renal, in the assay with MCF7 breast, with SK-MEL-28 melanoma and with RXF 393 renal was > 100 µM each time. Besides, the TGI with ACHN renal, with NCI-H522 lung, in the assay with SF-268 CNS, with T-47D breast, in the assay on TK-10 renal and in the assay on OVCAR-4 ovarian was > 100 µM throughout. Also, the TGI in the assay with HT29 colon, in the assay on HCT-116 colon and with NCI-H23 lung was > 100 µM each time.

In the case of `CC(=O)N1C=Cc2c(c(C)c3c([nH]c4ccccc43)c2C)C1`, the TGI was 16.8 µM in the assay on LOX IMVI melanoma; 23.8 µM in the assay with SF-295 CNS; 4.55 µM in the assay on OVCAR-3 ovarian; > 100 µM with SR leukemia; 20.3 µM in the assay with SN12C renal; 18.5 µM with MCF7 breast. The TGI was found to be 19.1 µM in the assay with COLO 205 colon; 31.8 µM with SK-MEL-28 melanoma; 37.4 µM in the assay with RXF 393 renal; 11.3 µM in the assay with ACHN renal; 29.7 µM with NCI-H522 lung; 32.6 µM in the assay on SF-268 CNS. Further, the TGI in the assay with TK-10 renal is 24.5 µM; in the assay on OVCAR-4 ovarian it was 5.17 µM; in the assay with HT29 colon it was 18 µM; in the assay with HCT-116 colon, 3.21 µM; with NCI-H23 lung, 20.4 µM.

Regarding `O=C1CSC(c2c[nH]c3ccccc23)N1c1cccc(Cl)c1` (stereo not given), the TGI in the assay on SF-295 CNS, in the assay with OVCAR-3 ovarian, with SN12C renal, with MCF7 breast, with COLO 205 colon and in the assay with SK-MEL-28 melanoma was > 100 µM in each case. The TGI in the assay on RXF 393 renal, with ACHN renal, in the assay on SF-268 CNS, in the assay with T-47D breast, in the assay with TK-10 renal and in the assay with OVCAR-4 ovarian was > 100 µM in each case. Moreover, the TGI in the assay with HT29 colon, with HCT-116 colon and in the assay on NCI-H23 lung was > 100 µM in each case.

On to `CNC(=O)C1CCCCNC(=O)CCC(NC(=O)OCc2ccccc2)C(=O)N1` (stereo not drawn) (Cbz-Glu-Lys-NHMe; lactam 1-2; configuration not given here), for which the TGI in the assay on LOX IMVI melanoma, in the assay with SF-295 CNS, with OVCAR-3 ovarian, in the assay on SN12C renal, with MCF7 breast and in the assay on COLO 205 colon was > 100 µM throughout. Moreover, the TGI in the assay on SK-MEL-28 melanoma, in the assay with RXF 393 renal, in the assay on ACHN renal, in the assay with NCI-H522 lung, in the assay with SF-268 CNS and with T-47D breast was > 100 µM throughout. Besides, the TGI in the assay on TK-10 renal, in the assay on OVCAR-4 ovarian, with HT29 colon, with HCT-116 colon and in the assay with NCI-H23 lung was > 100 µM throughout.

For the compound `CC(CN1NC12CCCC2)N1NC12CCCC2` (stereo not given), the TGI in the assay on LOX IMVI melanoma, in the assay on SF-295 CNS, in the assay with OVCAR-3 ovarian, in the assay on SN12C renal, in the assay with MCF7 breast and in the assay with COLO 205 colon was > 100 µM each time. The TGI in the assay on SK-MEL-28 melanoma, with RXF 393 renal, in the assay on ACHN renal, in the assay with NCI-H522 lung, in the assay on SF-268 CNS and in the assay with T-47D breast was > 100 µM throughout. The TGI in the assay with TK-10 renal, with OVCAR-4 ovarian, with HT29 colon, in the assay on HCT-116 colon and in the assay with NCI-H23 lung was > 100 µM throughout.

As to `COC(=O)c1c(O)c(C#N)c2[nH]c3ccccc3n2c1=O`, the TGI with SF-295 CNS, with OVCAR-3 ovarian, with SR leukemia, in the assay with SN12C renal, in the assay with MCF7 breast and in the assay on COLO 205 colon was > 100 µM throughout. The TGI in the assay on RXF 393 renal, in the assay on ACHN renal, in the assay with NCI-H522 lung, with SF-268 CNS, in the assay with TK-10 renal and with OVCAR-4 ovarian was > 100 µM each time. For the same compound, the TGI in the assay on HT29 colon, in the assay with HCT-116 colon and in the assay with NCI-H23 lung was > 100 µM in each case.

Consider `O=C1CSCC(=O)Nc2ccccc2N1`, for which the TGI in the assay on LOX IMVI melanoma, with SF-295 CNS, in the assay with OVCAR-3 ovarian, in the assay on SR leukemia, with SN12C renal and with COLO 205 colon was > 100 µM throughout. Besides, the TGI with SK-MEL-28 melanoma, in the assay with RXF 393 renal, with ACHN renal, with NCI-H522 lung, in the assay with SF-268 CNS and in the assay with T-47D breast was > 100 µM throughout. The TGI in the assay with TK-10 renal, in the assay on OVCAR-4 ovarian, in the assay on HT29 colon, in the assay on HCT-116 colon and with NCI-H23 lung was > 100 µM in each case.
